# Measurements published in ChEMBL document CHEMBL1201862, “PubChem BioAssay data set” (2004).
#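 Dose response: 5 concentrations. Exposure: 48 h. Format: 96-well plates. Endpoint: linear interpolation; highest concentration if not reached. GI50 is the concentration that inhibits growth by half.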 Calls of active or inactive are those of the source. Cut-off read from the data, not from the text of the source: active = GI50 up to about 1.1 µM and inactive = higher.
# Legend:
# Assay in all cases: growth of human tumour cells (NCI), 48 h
# ACHN = tested on: ACHN
# DLD-1 = tested on: DLD-1
# DMS-273 = tested on: DMS-273
# HOP-62 = tested on: HOP-62
# HOP-92 = tested on: HOP-92
# KM-20L2 = tested on: KM-20L2
# KM12 = tested on: KM12
# MOLT-4 = tested on: MOLT-4
# NCI-H522 = tested on: NCI-H522
# OVCAR-5 = tested on: OVCAR-5
# RPMI-8226 = tested on: RPMI-8226
# SF-268 = tested on: SF-268
# SF-539 = tested on: SF-539
# SK-MEL-2 = tested on: SK-MEL-2
# SK-MEL-5 = tested on: SK-MEL-5
# UO-31 = tested on: UO-31
# XF498 = tested on: XF498
# MDA-MB-231 = tested on: MDA-MB-231
# NCI/ADR-RES = tested on: NCI/ADR-RES
# T47D = tested on: T47D
SMILES,GI50 (ACHN),GI50 (DLD-1),GI50 (DMS-273),GI50 (HOP-62),GI50 (HOP-92),GI50 (KM-20L2),GI50 (KM12),GI50 (MOLT-4),GI50 (NCI-H522),GI50 (OVCAR-5),GI50 (RPMI-8226),GI50 (SF-268),GI50 (SF-539),GI50 (SK-MEL-2),GI50 (SK-MEL-5),GI50 (UO-31),GI50 (XF498),GI50 (MDA-MB-231),GI50 (NCI/ADR-RES),GI50 (T47D)
CC1OC(OC2C(CO)OC(O[C@H]3CC[C@@]4(C)C(=CC[C@H]5[C@@H]6C[C@@H]7O[C@]8(CC[C@@H](C)CN8)[C@@H](C)[C@@H]7[C@@]6(C)CC[C@@H]54)C3)C(O)C2O)C(O)C(O)C1O (stereo partly specified),> 100 µM (inactive),55 µM (inactive),> 100 µM (inactive),> 100 µM (inactive),31.7 µM (inactive),28.9 µM (inactive),> 100 µM (inactive),> 100 µM (inactive),70.6 µM (inactive),> 100 µM (inactive),> 100 µM (inactive),> 100 µM (inactive),> 100 µM (inactive),> 100 µM (inactive),> 100 µM (inactive),> 100 µM (inactive),> 100 µM (inactive),,,
COc1ccc(NC(=O)/C(=C/c2ccccc2)C(C)=O)cc1,20.7 µM (inactive),12.8 µM (inactive),13.7 µM (inactive),18 µM (inactive),15.8 µM (inactive),14.3 µM (inactive),12.4 µM (inactive),11.4 µM (inactive),1.73 µM (inactive),19.6 µM (inactive),5.24 µM (inactive),15.2 µM (inactive),15.3 µM (inactive),14.6 µM (inactive),13.9 µM (inactive),15.4 µM (inactive),16.2 µM (inactive),,,
COc1ccc(-c2c3ccccc3c(-c3ccc(OC)cc3)c3ccccc23)cc1,> 100 µM (inactive),> 100 µM (inactive),> 100 µM (inactive),> 100 µM (inactive),> 100 µM (inactive),> 100 µM (inactive),> 100 µM (inactive),> 100 µM (inactive),> 100 µM (inactive),> 100 µM (inactive),> 100 µM (inactive),> 100 µM (inactive),> 100 µM (inactive),> 100 µM (inactive),> 100 µM (inactive),> 100 µM (inactive),> 100 µM (inactive),,,
CN/C(=N/C#N)NCc1ccccc1,> 100 µM (inactive),> 100 µM (inactive),> 100 µM (inactive),> 100 µM (inactive),> 100 µM (inactive),> 100 µM (inactive),> 100 µM (inactive),> 100 µM (inactive),> 100 µM (inactive),> 100 µM (inactive),> 100 µM (inactive),> 100 µM (inactive),> 100 µM (inactive),> 100 µM (inactive),> 100 µM (inactive),> 100 µM (inactive),> 100 µM (inactive),,,
NC(=O)c1c(-c2ccccc2)c(-c2ccccc2)cc2c(=O)c3ccccc3[nH]c12,16.4 µM (inactive),35.3 µM (inactive),19.9 µM (inactive),24.2 µM (inactive),24.9 µM (inactive),21 µM (inactive),21.8 µM (inactive),16.4 µM (inactive),5.85 µM (inactive),65.8 µM (inactive),28.4 µM (inactive),39 µM (inactive),17.5 µM (inactive),19.9 µM (inactive),13.7 µM (inactive),33.7 µM (inactive),18 µM (inactive),,,
Cc1cc(N(CCC#N)CCC#N)ccc1/C(Sc1ccccc1)=C(\NC(=O)/C=C/c1ccccc1)C(=O)Sc1ccccc1,4.75 µM (inactive),1.73 µM (inactive),6.44 µM (inactive),2.56 µM (inactive),2.92 µM (inactive),2.14 µM (inactive),3.14 µM (inactive),0.557 µM (active),0.587 µM (active),5.45 µM (inactive),0.991 µM (active),0.565 µM (active),1.47 µM (inactive),3.42 µM (inactive),2.77 µM (inactive),0.731 µM (active),12 µM (inactive),,,
CC(=O)Nc1[nH]n(C)c(=O)c1-c1nnc(C)s1,> 100 µM (inactive),> 100 µM (inactive),> 100 µM (inactive),> 100 µM (inactive),> 100 µM (inactive),> 100 µM (inactive),> 100 µM (inactive),> 100 µM (inactive),> 100 µM (inactive),> 100 µM (inactive),> 100 µM (inactive),> 100 µM (inactive),> 100 µM (inactive),> 100 µM (inactive),> 100 µM (inactive),> 100 µM (inactive),> 100 µM (inactive),,,
COc1ccc(CC2C(=O)NC(C)C(=O)N(C)C3C(=O)N(C)C(Cc4ccc(O)c(c4)Oc4ccc(cc4)C3O)C(=O)NC(C)C(=O)NC(C)C(=O)N2C)cc1 (stereo unspecified),0.0891 µM (active),0.321 µM (active),0.0123 µM (active),0.0284 µM (active),0.0137 µM (active),0.0246 µM (active),0.00215 µM (active),0.0162 µM (active),0.0125 µM (active),0.0303 µM (active),0.014 µM (active),0.0125 µM (active),0.0136 µM (active),0.0125 µM (active),0.00746 µM (active),0.824 µM (active),0.0131 µM (active),< 0.01 µM (active),0.212 µM (active),< 0.01 µM (active)
CC1OC(n2cc(F)c(=O)[nH]c2=O)C=CC1O (stereo unspecified),> 100 µM (inactive),> 100 µM (inactive),> 100 µM (inactive),> 100 µM (inactive),> 100 µM (inactive),> 100 µM (inactive),> 100 µM (inactive),> 100 µM (inactive),> 100 µM (inactive),> 100 µM (inactive),> 92.3 µM (inactive),> 100 µM (inactive),> 100 µM (inactive),> 100 µM (inactive),> 100 µM (inactive),> 100 µM (inactive),> 100 µM (inactive),,,
C=C1[C@@H](C)[C@H]2[C@H](Cc3ccccc3)NC(=O)[C@]23OC(=O)/C=C/[C@H](O)CCC[C@@H](C)C/C=C/[C@H]3[C@@H]1O,4.4 µM (inactive),0.828 µM (active),8.93 µM (inactive),0.605 µM (active),0.436 µM (active),15.2 µM (inactive),53.3 µM (inactive),4.04 µM (inactive),9.23 µM (inactive),32.2 µM (inactive),1.82 µM (inactive),2.55 µM (inactive),0.465 µM (active),24.2 µM (inactive),9.53 µM (inactive),0.258 µM (active),0.571 µM (active),5.31 µM (inactive),20.3 µM (inactive),2.92 µM (inactive)
